Measured values as given in patent publication US9695133B2, “Quinazolinone-based oncogenic-RAS-selective lethal compounds and their use” (THE TRUSTEES OF COLUMBIA UNIVERSITY IN THE CITY OF NEW YORK, priority 2012, dated 2017).

Test system: HT-1080 cells
Experiment: Metabolite profiling (LC-MS/MS) upon erastin treatment
Format: cell-based, human
Conditions: 5 μg/mL erastin 5 h
Protocol: 2 million HT-1080 cells were seeded in 10 cm culture dishes. […] 4 mL of cold 80% methanol was added to the cell monolayer to extract polar metabolites using a cell scraper. The cell lysate/methanol mixture was transferred to a 15 mL tube and centrifuged at 2,000×g at 4° C. for 10 minutes to pellet debris and proteins. The supernatant was transferred to a new tube and stored at −80° C. for liquid chromatography-mass spectrometry/mass spectrometry (LC-MS/MS) analysis. For lipid extract preparation, 3 mL of cold 100% isopropanol was added to the cell monolayer to scrape out cells. The resulting cell lysate/isopropanol mixture was transferred to a new 15 mL tube and centrifuged at 2,000×g at 4° C. for 10 minutes. The cleared supernatant was transferred to a new tube and stored at −20° C. for LC-MS/MS analysis.
The metabolite extract was subjected to LC-MS/MS analysis to determine the quantity of each metabolite in each sample.

CCOc1ccccc1-n1c(C(C)N2CCN(C(=O)COc3ccc(Cl)cc3)CC2)nc2ccccc2c1=O (stereo not drawn) [erastin]
C36:1 DAG Erastin/DMSO: 0.9334 | C36:1 DAG log2 (Erastin/DMSO): −0.09938 | C36:1 PC Erastin/DMSO: 0.6286 | C36:1 PC log2 (Erastin/DMSO): −0.6697 | C36:1 PE Erastin/DMSO: 0.9953 | C36:1 PE log2 (Erastin/DMSO): −0.006813 | C36:2 DAG Erastin/DMSO: 0.9163 | C36:2 DAG log2 (Erastin/DMSO): −0.1261 | C36:2 PC Erastin/DMSO: 0.8729 | C36:2 PC log2 (Erastin/DMSO): −0.1962 | C36:2 PE Erastin/DMSO: 0.9352 | C36:2 PE log2 (Erastin/DMSO): −0.09672 | C36:2 PI Erastin/DMSO: 1.021 | C36:2 PI log2 (Erastin/DMSO): 0.02948 | C36:3 DAG Erastin/DMSO: 1.092 | C36:3 DAG log2 (Erastin/DMSO): 0.1266 | C36:3 PC Erastin/DMSO: 0.9251 | C36:3 PC log2 (Erastin/DMSO): −0.1124 | C36:4 PC Erastin/DMSO: 0.9027 | C36:4 PC log2 (Erastin/DMSO): −0.1477 | C36:4 PI Erastin/DMSO: 1.395 | C36:4 PI log2 (Erastin/DMSO): 0.4801 | C38:2 PC Erastin/DMSO: 0.8405 | C38:2 PC log2 (Erastin/DMSO): −0.2507 | C38:3 PC Erastin/DMSO: 0.6597 | C38:3 PC log2 (Erastin/DMSO): −0.6001 | C38:4 PC Erastin/DMSO: 0.6814 | C38:4 PC log2 (Erastin/DMSO): −0.5533 | C38:4 PI Erastin/DMSO: 0.9823 | C38:4 PI log2 (Erastin/DMSO): −0.02583 | C38:5 PC Erastin/DMSO: 0.8836 | C38:5 PC log2 (Erastin/DMSO): −0.1786 | C38:6 PC Erastin/DMSO: 0.9708 | C38:6 PC log2 (Erastin/DMSO): −0.0428 | C44:0 TAG Erastin/DMSO: 0.9683 | C44:0 TAG log2 (Erastin/DMSO): −0.04648 | C44:1 TAG Erastin/DMSO: 1.639 | C44:1 TAG log2 (Erastin/DMSO): 0.7127 | C46:0 TAG Erastin/DMSO: 0.9424 | C46:0 TAG log2 (Erastin/DMSO): −0.08557 | C46:1 TAG Erastin/DMSO: 1.171 | C46:1 TAG log2 (Erastin/DMSO): 0.2276 | C46:2 TAG Erastin/DMSO: 1.542 | C46:2 TAG log2 (Erastin/DMSO): 0.6247 | C48:0 TAG Erastin/DMSO: 1.098 | C48:0 TAG log2 (Erastin/DMSO): 0.1354 | C48:1 TAG Erastin/DMSO: 1.059 | C48:1 TAG log2 (Erastin/DMSO): 0.08209 | C48:2 TAG Erastin/DMSO: 1.121 | C48:2 TAG log2 (Erastin/DMSO): 0.1647 | C48:3 TAG Erastin/DMSO: 1.52 | C48:3 TAG log2 (Erastin/DMSO): 0.6042 | C50:0 TAG Erastin/DMSO: 0.9625 | C50:0 TAG log2 (Erastin/DMSO): −0.05513 | C50:1 TAG Erastin/DMSO: 1.011 | C50:1 TAG log2 (Erastin/DMSO): 0.01634 | C50:2 TAG Erastin/DMSO: 1.073 | C50:2 TAG log2 (Erastin/DMSO): 0.1023 | C50:3 TAG Erastin/DMSO: 1.241 | C50:3 TAG log2 (Erastin/DMSO): 0.3115 | C50:4 TAG Erastin/DMSO: 1.682 | C50:4 TAG log2 (Erastin/DMSO): 0.7502 | C50:5 TAG Erastin/DMSO: 1.277 | C50:5 TAG log2 (Erastin/DMSO): 0.3528 | C52:0 TAG Erastin/DMSO: 1.041 | C52:0 TAG log2 (Erastin/DMSO): 0.05755 | C52:1 TAG Erastin/DMSO: 0.897 | C52:1 TAG log2 (Erastin/DMSO): −0.1568 | C52:2 TAG Erastin/DMSO: 0.9964 | C52:2 TAG log2 (Erastin/DMSO): −0.005196 | C52:3 TAG Erastin/DMSO: 1.124 | C52:3 TAG log2 (Erastin/DMSO): 0.168 | C52:4 TAG Erastin/DMSO: 1.305 | C52:4 TAG log2 (Erastin/DMSO): 0.3844 | C52:5 TAG Erastin/DMSO: 1.279 | C52:5 TAG log2 (Erastin/DMSO): 0.355 | C52:6 TAG Erastin/DMSO: 1.602 | C52:6 TAG log2 (Erastin/DMSO): 0.6796 | C54:1 TAG Erastin/DMSO: 0.8628 | C54:1 TAG log2 (Erastin/DMSO): −0.2129 | C54:2 TAG Erastin/DMSO: 0.8696 | C54:2 TAG log2 (Erastin/DMSO): −0.2016 | C54:3 TAG Erastin/DMSO: 0.9692 | C54:3 TAG log2 (Erastin/DMSO): −0.04517 | C54:4 TAG Erastin/DMSO: 1.178 | C54:4 TAG log2 (Erastin/DMSO): 0.2363 | C54:5 TAG Erastin/DMSO: 1.315 | C54:5 TAG log2 (Erastin/DMSO): 0.3952 | C54:6 TAG Erastin/DMSO: 1.267 | C54:6 TAG log2 (Erastin/DMSO): 0.3411 | C54:7 TAG Erastin/DMSO: 1.062 | C54:7 TAG log2 (Erastin/DMSO): 0.08689 | C54:8 TAG Erastin/DMSO: 0.9067 | C54:8 TAG log2 (Erastin/DMSO): −0.1413 | C54:9 TAG Erastin/DMSO: 1.331 | C54:9 TAG log2 (Erastin/DMSO): 0.4129 | C54:10 TAG Erastin/DMSO: 0.8851 | C54:10 TAG log2 (Erastin/DMSO): −0.1761 | C56:2 TAG Erastin/DMSO: 0.9703 | C56:2 TAG log2 (Erastin/DMSO): −0.04354 | C56:3 TAG Erastin/DMSO: 0.8103 | C56:3 TAG log2 (Erastin/DMSO): −0.3035 | C56:4 TAG Erastin/DMSO: 0.9505 | C56:4 TAG log2 (Erastin/DMSO): −0.07326 | C56:5 TAG Erastin/DMSO: 1.134 | C56:5 TAG log2 (Erastin/DMSO): 0.1814 | C56:6 TAG Erastin/DMSO: 1.047 | C56:6 TAG log2 (Erastin/DMSO): 0.06693 | C56:7 TAG Erastin/DMSO: 1.062 | C56:7 TAG log2 (Erastin/DMSO): 0.08653 | C56:8 TAG Erastin/DMSO: 1.178 | C56:8 TAG log2 (Erastin/DMSO): 0.2368 | C56:9 TAG Erastin/DMSO: 0.9865 | C56:9 TAG log2 (Erastin/DMSO): −0.01961 | C56:10 TAG Erastin/DMSO: 0.9129 | C56:10 TAG log2 (Erastin/DMSO): −0.1315 | C58:6 TAG Erastin/DMSO: 1.047 | C58:6 TAG log2 (Erastin/DMSO): 0.06641 | C58:7 TAG Erastin/DMSO: 1.071 | C58:7 TAG log2 (Erastin/DMSO): 0.09945 | C58:8 TAG Erastin/DMSO: 1.118 | C58:8 TAG log2 (Erastin/DMSO): 0.1603 | C58:9 TAG Erastin/DMSO: 1.176 | C58:9 TAG log2 (Erastin/DMSO): 0.2336 | CMP Erastin/DMSO: 0.9376 | CMP log2 (Erastin/DMSO): −0.09295 | DHAP Erastin/DMSO: 1.227 | DHAP log2 (Erastin/DMSO): 0.2955 | F1P Erastin/DMSO: 0.9652 | F1P log2 (Erastin/DMSO): −0.05103 | F16DP/F26DP/G16DP Erastin/DMSO: 1.303 | F16DP/F26DP/G16DP log2 (Erastin/DMSO): 0.3816
